One may read the EC50 as the concentration giving half of the maximal effect. What is called Ki is a dissociation constant, usually derived from enzyme kinetics or from competition with a known ligand. By IC50 is commonly meant the midpoint of a concentration-inhibition curve.

The text below walks through data of article PMC3365486 (Behavioural Pharmacology, 2012).

Where “and” joins values, the source holds several entries; their conditions need not be identical. Equal entries are not always repeated. Structures can show the parent of a compound that is named as a salt. Marks after values point to notes of the source that are not given here. Where only a bound is given, the exact number is not on record here.

Experiment [1] deals with T1, recombinant human D4 receptors (Homo sapiens, UniProt P21917).
T1 sequence (P21917 1-419): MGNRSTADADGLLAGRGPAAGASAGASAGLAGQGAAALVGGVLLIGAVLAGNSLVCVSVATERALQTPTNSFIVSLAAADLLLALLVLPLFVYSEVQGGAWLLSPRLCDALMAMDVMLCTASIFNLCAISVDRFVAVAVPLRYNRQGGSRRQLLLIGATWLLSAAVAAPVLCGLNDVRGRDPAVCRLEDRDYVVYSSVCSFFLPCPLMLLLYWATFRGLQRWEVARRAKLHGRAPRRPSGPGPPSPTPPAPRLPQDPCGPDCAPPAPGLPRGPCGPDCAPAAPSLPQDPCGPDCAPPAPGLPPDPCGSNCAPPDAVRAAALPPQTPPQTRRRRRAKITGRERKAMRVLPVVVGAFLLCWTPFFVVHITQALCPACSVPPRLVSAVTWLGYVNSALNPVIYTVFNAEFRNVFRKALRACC
The experiment in a line: Inhibition of forskolin-stimulated cAMP accumulation in intact CHO cells. The note with it: read-out: in vitro Functional Activity EC50, hD4, geometric mean (95%CI). It is filed as cell-based.

A further experiment deals with drug-naïve rats. As to the kind of experiment: Acquisition of IV self-administration under FR1 in drug-naïve rats. It counts as in vivo, rat. The following applies: for % Met, Both Criteria Met / % Met, criterion ≥ 15 Injections per Session / % Met, criterion ≥ 70% Active Lever Selection: FR1, 18 sessions, n=7.
Experiment [2] concerns the target T1, recombinant human D4 receptors. As to the kind of experiment: In vitro competition binding, [3H]spiperone, CHO cell membranes. The following applies: read-out: in vitro Binding Affinity Ki, hD4, geometric mean (95%CI).
The subject of experiment [3] is rats trained to self-administer cocaine. The experiment in a line: Progressive ratio. It counts as in vivo, rat. The following applies: for Total Injections / Total Responses / Final Ratio Achieved: maximally effective dose (cocaine 1.0, 7-OH-DPAT 0.32, PF-592,379 0.1 mg/kg/inf), mean (SEM); for PR responding when substituted for cocaine, relative to saline: cocaine 0.032–1.0, 7-OH-DPAT and PF-592,379 0.1–1.0 mg/kg/inj.

For a further experiment, the system named is rats. The experiment in a line: Locomotor activity observed at large doses. It is filed as in vivo, rat. The note with it: PF-592,379 doses as large as 32.0 mg/kg.
Experiment [4] has as its system rats trained to self-administer cocaine. The experiment in a line: Fixed ratio. It is filed as in vivo, rat. The following applies: for FR5 responding when substituted for cocaine, relative to saline: cocaine and 7-OH-DPAT 0.032–1.0, PF-592,379 0.01–1.0 mg/kg/inj i.v., n=6.
In experiment [5] the test system is rats trained to discriminate 5.6 mg/kg cocaine from saline. The note with it: rat, in vivo; for maximum cocaine-appropriate responding: sc.
For experiment [6], the target named is T2, recombinant human D3 receptors (Homo sapiens, UniProt P35462). The experiment in a line: In vitro competition binding, [3H]spiperone, CHO cell membranes. The following applies: no binding up to 10 µM.
T2 sequence (P35462 whole entry): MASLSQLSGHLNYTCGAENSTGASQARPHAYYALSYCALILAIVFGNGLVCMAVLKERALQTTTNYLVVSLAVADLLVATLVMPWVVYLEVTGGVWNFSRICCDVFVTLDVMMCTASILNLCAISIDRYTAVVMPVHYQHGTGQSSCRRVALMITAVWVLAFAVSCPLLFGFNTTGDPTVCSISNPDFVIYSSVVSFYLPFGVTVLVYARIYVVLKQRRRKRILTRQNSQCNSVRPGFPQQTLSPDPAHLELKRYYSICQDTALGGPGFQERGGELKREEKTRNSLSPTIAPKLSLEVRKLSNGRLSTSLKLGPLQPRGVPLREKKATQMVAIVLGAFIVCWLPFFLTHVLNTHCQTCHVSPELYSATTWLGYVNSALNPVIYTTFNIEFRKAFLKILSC
Experiment [7] concerns the target T2, recombinant human D3 receptors. The note with it: cAMP accumulation; ref Attkins et al., 2010; cited from earlier work. (In general: Changes in cAMP serve as a functional read-out for many G protein-coupled receptors.)
Experiment [8] has the same target. The experiment in a line: Inhibition of forskolin-stimulated cAMP accumulation in intact CHO cells. It is filed as cell-based.
The target of experiment [9] is recombinant human D1 receptors (Homo sapiens, UniProt P21728). As to the kind of experiment: In vitro competition binding, [3H]SCH23390, CHO cell membranes.
Sequence of recombinant human D1 receptors (P21728 whole entry): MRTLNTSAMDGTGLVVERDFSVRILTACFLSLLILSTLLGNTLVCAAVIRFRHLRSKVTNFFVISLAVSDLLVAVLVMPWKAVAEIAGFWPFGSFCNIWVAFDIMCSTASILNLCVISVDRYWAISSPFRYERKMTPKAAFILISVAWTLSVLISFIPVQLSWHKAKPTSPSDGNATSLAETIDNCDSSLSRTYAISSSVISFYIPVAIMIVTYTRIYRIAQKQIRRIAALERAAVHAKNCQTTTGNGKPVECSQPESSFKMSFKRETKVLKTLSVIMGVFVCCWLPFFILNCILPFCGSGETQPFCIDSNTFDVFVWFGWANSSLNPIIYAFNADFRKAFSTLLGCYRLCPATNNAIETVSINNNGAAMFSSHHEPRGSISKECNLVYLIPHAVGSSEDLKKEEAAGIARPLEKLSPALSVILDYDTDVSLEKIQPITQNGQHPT
Experiment [10] concerns the target recombinant human D2 receptors (Homo sapiens, UniProt P14416). The experiment in a line: In vitro competition binding, [3H]U-86170, CHO cell membranes.
Experiment [11] deals with recombinant human D5 receptors (Homo sapiens, UniProt P21918). The experiment in a line: In vitro competition binding, [3H]SCH23390, CHO cell membranes.
Sequence of recombinant human D5 receptors (P21918 whole entry): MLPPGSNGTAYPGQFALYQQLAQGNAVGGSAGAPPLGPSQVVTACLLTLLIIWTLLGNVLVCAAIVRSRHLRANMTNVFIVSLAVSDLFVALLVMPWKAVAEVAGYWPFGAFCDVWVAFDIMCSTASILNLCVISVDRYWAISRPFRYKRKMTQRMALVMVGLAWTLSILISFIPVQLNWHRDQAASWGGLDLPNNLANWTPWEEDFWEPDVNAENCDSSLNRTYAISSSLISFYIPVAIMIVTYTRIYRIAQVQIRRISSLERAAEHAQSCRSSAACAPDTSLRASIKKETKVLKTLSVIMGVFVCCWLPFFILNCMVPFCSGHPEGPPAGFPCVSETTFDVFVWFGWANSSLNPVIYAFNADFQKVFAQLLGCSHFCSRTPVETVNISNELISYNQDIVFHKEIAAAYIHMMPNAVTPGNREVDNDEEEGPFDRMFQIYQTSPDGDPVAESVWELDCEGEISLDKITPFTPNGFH
In a further experiment the test system is D3 or D2 receptor. The note with it: ref Collins et al., 2007; cited from earlier work.
A further experiment deals with D2 receptor. The following applies: ref McCall et al., 2005; cited from earlier work.
Another experiment relates to D3 receptor. The following applies: ref Millan et al., 2002; cited from earlier work.
[12] abbreviates: 0.32 mg/kg per injection IV, FR1.

Sequence of recombinant human D2 receptors (P14416 whole entry): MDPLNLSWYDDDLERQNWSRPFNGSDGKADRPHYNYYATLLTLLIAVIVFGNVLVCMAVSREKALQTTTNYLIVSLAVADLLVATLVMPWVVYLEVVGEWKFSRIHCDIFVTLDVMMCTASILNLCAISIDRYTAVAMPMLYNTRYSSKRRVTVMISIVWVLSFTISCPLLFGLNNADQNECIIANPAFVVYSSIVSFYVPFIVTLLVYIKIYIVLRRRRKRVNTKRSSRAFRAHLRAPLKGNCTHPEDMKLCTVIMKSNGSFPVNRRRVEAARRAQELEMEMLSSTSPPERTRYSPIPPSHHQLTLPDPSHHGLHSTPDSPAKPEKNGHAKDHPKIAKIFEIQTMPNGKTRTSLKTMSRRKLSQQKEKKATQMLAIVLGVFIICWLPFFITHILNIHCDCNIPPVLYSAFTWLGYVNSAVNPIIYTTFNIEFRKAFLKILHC

On to `Br.CCCN(CCC)C1CCc2ccc(O)cc2C1` (racemic) [7-OH-DPAT, (±)-7-Hydroxy-2-dipropylaminotetralin HBr], for which the EC50 in [1] amounted to 45.2 nM. The “Sessions to Criteria (SEM), criterion ≥ 15 Injections per Session” value (“Sessions to Criteria (SEM) … per Session” for short) in the experiment on drug-naïve rats (setting [12]) was 15.5 (1.5) sessions. For the same compound, in the experiment on drug-naïve rats (0.32 mg/kg per injection IV), the “% Met, Both Criteria Met” value is recorded as 0% and the “% Met, criterion ≥ 15 Injections per Session” value (shortened to “% Met … per Session”) is reported as 28%. In addition, the Ki in experiment [2] was found to be 110 nM. In experiment [3] (PR), the “Total Injections” value was 17.2 (5.4) and the “Total Responses” value is 690.5 (303.7). In addition, in the experiment with rats, the “effect on locomotor activity” value is recorded as “stimulated locomotor activity”. The “doses maintaining FR5 responding significantly greater than saline” value in experiment [4] (FR5, i.v.) is on record as 0.1 mg/kg/inj. Further, in experiment [5], the “substitution for the discriminative stimulus effects of cocaine” value is “only partially substituted for cocaine”; the maximum cocaine-appropriate responding is 59% and ~ 60%.
In the case of `CCCN1C[C@@H](c2ccc(N)nc2)OC[C@@H]1C` [PF-592,379, 5-[(2R,5S)-5-methyl-4-propylmorpholin-2-yl]pyridin-2-amine], in experiment [6], the “binding selectivity for D3 over D2, D1, and D5 receptors” value is reported as “at least 46 fold”. Also, in experiment [7], the “agonist efficacy at the D3 receptor” value is given as “full agonist”. Also, in [8], the “functional selectivity for D3 over D2 receptors” value is “at least 470 fold”. Also, in experiment [9], the IC50 was at least 10000 nM. The “Sessions to Criteria (SEM) … per Session” value with drug-naïve rats (setting [12]) is 3 (n.a.) sessions. Also, in the experiment with drug-naïve rats (0.32 mg/kg per injection IV), the “% Met, Both Criteria Met” value is on record as 0%; the “% Met … per Session” value came to 14%; the “% Met, criterion ≥ 70% Active Lever Selection” value came to 0%. Further, in the experiment on drug-naïve rats (0.32 mg/kg/inj, FR1), the “drug earned during the first few acquisition sessions” value is listed as “approximately 3 mg/kg” and the “injections per session by the end of the acquisition period” value is below 5 injections per session. The IC50 in experiment [10] is at least 10000 nM. In addition, in experiment [3] (PR), the “Final Ratio Achieved” value is 8.9 (2.1), the “Total Injections” value is recorded as 1.3 (0.5) and the “Total Responses” value is 18.5 (11.7). Moreover, in experiment [3], the “PR responding when substituted for cocaine, relative to saline” value was “Low, saline-like levels of responding”. Besides, in the experiment on rats, the “effect on locomotor activity” value was “only a mild inhibition of locomotor activity”. In [4] (FR5 or PR schedule, doses as large as 1.0 mg/kg), the “injections per session when substituted for cocaine” value is listed as below 5 injections per session. The “FR5 responding when substituted for cocaine, relative to saline” value in [4] is listed as “no different than saline”. The IC50 in experiment [11] was at least 10000 nM. For the same compound, in [5], the “responding at the largest doses tested, relative to baseline” value is reported as ~ 15 % of baseline; the “substitution for the discriminative stimulus effects of cocaine” value is recorded as “nearly exclusive responding on the saline-appropriate lever”; the maximum cocaine-appropriate responding was 3.5%.
As to `CN[C@@H]1Cc2cccc3[nH]c(=O)n(c23)C1` [sumanirole], the “range of doses over which the D3 or D2 receptor is selectively activated in vivo” value in the experiment with D3 or D2 receptor was at most 30 fold. Moreover, the “in vitro radioligand binding selectivity for the D2 over D3 receptor” value with D2 receptor is recorded as ~ 200 fold.
With `COC(=O)[C@H]1[C@@H](OC(=O)c2ccccc2)C[C@@H]2CC[C@H]1N2C` [Cocaine, Cocaine HCl], in the experiment with drug-naïve rats (setting [12]), the “Sessions to Criteria (SEM), Both Criteria Met” value is 11.0 (2.3) sessions; the “Sessions to Criteria (SEM) … per Session” value is recorded as 11.8 (2.4) sessions; the “Sessions to Criteria (SEM), criterion ≥ 70% Active Lever Selection” value is listed as 10.4 (2.1) sessions. Besides, in the experiment on drug-naïve rats (0.32 mg/kg per injection IV), the “% Met, Both Criteria Met” value is listed as 71%; the “% Met … per Session” value was 86%; the “% Met, criterion ≥ 70% Active Lever Selection” value is listed as 71%. Besides, the “doses maintaining significantly more PR responding than saline” value in experiment [3] (PR, i.v.) is at least 0.1 mg/kg/inj. Further, in experiment [3] (PR), the “Final Ratio Achieved” value is 172.0 (40.4) ^***, the “Total Injections” value is listed as 31.0 (3.4) ^*** and the “Total Responses” value is recorded as 1895.0 (687.3) ^**. Moreover, the “PR responding when substituted for cocaine, relative to saline” value in [3] was “monotonic increases in responding”. Moreover, the “FR5 responding when substituted for cocaine, relative to saline” value in [4] was “maintained dose-dependent levels of responding”.
As to `CCCN[C@H]1CCc2nc(N)sc2C1` [pramipexole], the “range of doses over which the D3 or D2 receptor is selectively activated in vivo” value with D3 or D2 receptor is reported as at most 30 fold. In the experiment with D3 receptor, the “in vitro radioligand binding selectivity for the D3 over D2” value is ~ 100 fold.
